# Measurements published in PubChem BioAssay AID328 (DTP/NCI, 2004).
# Where “and” joins values, the source holds several entries; their conditions need not be identical. Identical values can stand only once. Toxic doses and inconclusive results are not listed. Residues, ends and D or L forms follow the SMILES beside them.
# Test system: BDF1 mice, P388 leukemia ip, median survival T/C
# Assay: NCI In Vivo Anticancer Drug Screen. Data for tumor model P388 Leukemia (intraperitoneal) in B6D2F1 (BDF1) mice
# Details: endpoint: median survival time, higher = longer survival
# Outline: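 Survival ratio, drug arm over vehicle arm, in mice with a transplanted tumour.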
# [1] = dose: 50.0 mg/kg/injection, schedule: Q04DX003 (ip), vehicle: saline
# [2] = dose: 100.0 mg/kg/injection, schedule: Q04DX003 (ip), vehicle: saline
# [3] = dose: 200.0 mg/kg/injection, schedule: Q04DX003 (ip), vehicle: saline
# [4] = dose: 50.0 mg/kg/injection, schedule: Q01DX009 (ip), vehicle: saline
# [5] = dose: 100.0 mg/kg/injection, schedule: Q01DX009 (ip), vehicle: saline with Tween-80
structure (smiles),measurement,setting,value
C=C(C)C(=O)OC1CC2(C)OC2CC(OC(C)=O)/C(C)=C/C2OC(=O)C(=C)C21 (configuration not stated),T/C,"dose: 11.25 mg/kg/injection, schedule: Q01DX009 (ip), vehicle: saline",118 % of control
Cc1ccc(C(=O)CCCCl)cc1C,T/C,"dose: 100.0 mg/kg/injection, schedule: Q04DX003 (ip), vehicle: saline with Tween-80",104 % of control
same,T/C,"dose: 200.0 mg/kg/injection, schedule: Q04DX003 (ip), vehicle: saline with Tween-80",104 % of control
same,T/C,"dose: 400.0 mg/kg/injection, schedule: Q04DX003 (ip), vehicle: saline with Tween-80",109 % of control
CN1CC=C(N2CCOCC2)CC1,T/C,"dose: 25.0 mg/kg/injection, schedule: Q04DX003 (ip), vehicle: saline",120 % of control
same,T/C,[1],120 % of control
same,T/C,[2],120 % of control
NOCc1cccc([N+](=O)[O-])c1,T/C,[1],100 % of control
same,T/C,[2],91 % of control
same,T/C,[3],91 % of control
COc1ccc(OC)c2c1C(=O)CC2C (configuration not stated),T/C,"dose: 25.0 mg/kg/injection, schedule: Q01DX009 (ip), vehicle: saline",105 % of control
same,T/C,[4],91 % of control
same,T/C,"dose: 100.0 mg/kg/injection, schedule: Q01DX009 (ip), vehicle: saline",98 % of control
CC(C)=CCC/C(C)=C/CO,T/C,"dose: 15.6 mg/kg/injection, schedule: Q01DX010 (ip), vehicle: saline",100 % of control
same,T/C,"dose: 31.3 mg/kg/injection, schedule: Q01DX010 (ip), vehicle: saline",100 % of control
same,T/C,"dose: 62.5 mg/kg/injection, schedule: Q01DX010 (ip), vehicle: saline",113 % of control
same,T/C,"dose: 125.0 mg/kg/injection, schedule: Q01DX010 (ip), vehicle: saline",118 % of control
CC(=O)CC(=O)NC1CCCCC1,T/C,[5],100 % of control
same,T/C,"dose: 200.0 mg/kg/injection, schedule: Q01DX009 (ip), vehicle: saline with Tween-80",100 % of control
same,T/C,"dose: 400.0 mg/kg/injection, schedule: Q01DX009 (ip), vehicle: saline with Tween-80",100 % of control
O=Cc1nc2ccccc2c2ccccc12,T/C,"dose: 100.0 mg/kg/injection, schedule: Q01DX001 (ip), vehicle: saline sonified",100 % of control
same,T/C,"dose: 200.0 mg/kg/injection, schedule: Q01DX001 (ip), vehicle: saline sonified",100 % of control
same,T/C,"dose: 400.0 mg/kg/injection, schedule: Q01DX001 (ip), vehicle: saline sonified",100 % of control
CN(C)c1ncnc2c1ncn2C1OC(CO)C(N)C1O (configuration not stated),T/C,"dose: 14.0 mg/kg/injection, schedule: Q01DX009 (ip), vehicle: saline",95 % of control
same,T/C,"dose: 22.0 mg/kg/injection, schedule: Q01DX009 (ip), vehicle: saline",100 % of control
same,T/C,[4],150 % of control and 177 % of control
Cc1cc2nc3n(c2cc1C)C(C)(C)N=C(N)N3,T/C,"dose: 50.0 mg/kg/injection, schedule: Q01DX009 (ip), vehicle: saline with Tween-80",102 % of control
same,T/C,[5],112 % of control
NC(=S)N/N=C/c1ccc(N)cn1,T/C,"dose: 3.13 mg/kg/injection, schedule: Q01DX009 (ip), vehicle: saline with Tween-80",160 % of control
same,T/C,"dose: 6.25 mg/kg/injection, schedule: Q01DX009 (ip), vehicle: saline with Tween-80",172 % of control and 211 % of control
CC1NC(=O)C2CCCN2C(=O)C2CCCN2C(=O)C(C(C)C)NC(=O)C(Cc2ccccc2)NC(=O)C(Cc2ccccc2)NC(=O)C2CCCN2C(=O)C2CCCN2C(=O)C(Cc2ccccc2)NC(=O)C(Cc2ccccc2)NC1=O (configuration not stated) (cyclo(AFFPPFFVPP); configuration not given here),T/C,"dose: 0.5 mg/kg/injection, schedule: Q01DX009 (ip), vehicle: saline",101 % of control
same,T/C,"dose: 1.0 mg/kg/injection, schedule: Q01DX009 (ip), vehicle: saline",104 % of control
same,T/C,"dose: 2.0 mg/kg/injection, schedule: Q01DX009 (ip), vehicle: saline",104 % of control
Cc1noc2nc[nH]c(=O)c12,T/C,"dose: 100.0 mg/kg/injection, schedule: Q04DX002 (ip), vehicle: saline with Tween-80",107 % of control
same,T/C,"dose: 200.0 mg/kg/injection, schedule: Q04DX002 (ip), vehicle: saline with Tween-80",106 % of control
same,T/C,"dose: 400.0 mg/kg/injection, schedule: Q04DX002 (ip), vehicle: saline with Tween-80",94 % of control
CCCC1=NNc2n[nH]c(=S)n2N1,T/C,"dose: 12.5 mg/kg/injection, schedule: Q04DX003 (ip), vehicle: Klucel (hydroxypropylcellulose) (HPC)",100 % of control
same,T/C,"dose: 25.0 mg/kg/injection, schedule: Q04DX003 (ip), vehicle: Klucel (hydroxypropylcellulose) (HPC)",91 % of control
same,T/C,"dose: 50.0 mg/kg/injection, schedule: Q04DX003 (ip), vehicle: Klucel (hydroxypropylcellulose) (HPC)",91 % of control
CCCCCCCC/C=C\CCCCCCCC(=O)OCCCCCCCCCCCCCCC,T/C,[2],100 % of control
same,T/C,[3],100 % of control
same,T/C,"dose: 400.0 mg/kg/injection, schedule: Q04DX003 (ip), vehicle: saline",100 % of control
